Test systems include A549; ACHN; COLO 205; EKVX; HCT-116; HOP-92; Hs-578T; KM12; MCF7; MDA-N; MOLT-4; NCI-H522; OVCAR-5; PC-3; RPMI-8226; SNB-19; T47D; U-251; UACC-257; UO-31.
Holding throughout (assay): inhibition of tumour cell growth, NCI panel, 48 h

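Each compound was tested at five concentrations against cells in 96-well plates for 48 hours. GI50 = concentration required for 50% inhibition of growth.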 Activity calls are given as the source filed them. Rule as the data show it: active = GI50 up to about 1.1 µM and inactive = higher.

As for `O=[N+]([O-])c1ccc2[nH]ncc2c1Cl`, the GI50 is 45 µM (inactive) with A549; 24.7 µM (inactive) with ACHN; 13.4 µM (inactive) in the assay on COLO 205; 20.6 µM (inactive) with EKVX; 24 µM (inactive) with HCT-116; 63 µM (inactive) in the assay with HOP-92. For the same compound, the GI50 in the assay on Hs-578T was 21.4 µM (inactive); in the assay on KM12, 25.3 µM (inactive); in the assay on MCF7, 41.7 µM (inactive); in the assay with MDA-N, 16.1 µM (inactive); in the assay with MOLT-4 it was 22.8 µM (inactive); in the assay with NCI-H522, 3.74 µM (inactive). For the same compound, the GI50 with OVCAR-5 was 23.6 µM (inactive); in the assay on PC-3 it was 29.6 µM (inactive); with RPMI-8226, 20.1 µM (inactive); in the assay on SNB-19 it was 36.8 µM (inactive); in the assay on T47D, 17.5 µM (inactive); in the assay on U-251, 42.5 µM (inactive). Also, the GI50 in the assay on UACC-257 is 31.2 µM (inactive).

For `CC(=O)O[C@H]1[C@H](OC(C)=O)[C@@H](CN=[N+]=[N-])OCO[C@@H]1CN=[N+]=[N-]`, the GI50 with A549, in the assay with ACHN, in the assay with COLO 205, in the assay on EKVX, in the assay with HCT-116 and with HOP-92 was > 100 µM (inactive) throughout. In addition, the GI50 in the assay with Hs-578T is < 0.01 µM (active); with KM12, > 100 µM (inactive); in the assay with MCF7 it was > 100 µM (inactive); with MDA-N, > 100 µM (inactive); in the assay on MOLT-4 it was > 100 µM (inactive); with NCI-H522 it was > 100 µM (inactive). The GI50 with OVCAR-5, in the assay on PC-3, with RPMI-8226, with SNB-19, with T47D and in the assay with U-251 was > 100 µM (inactive) each time. Also, the GI50 in the assay with UACC-257 is > 100 µM (inactive).

As to `COc1ccc(/C=N\N(C)Cc2cccc3ccsc23)cc1`, the GI50 was > 100 µM (inactive) in the assay with A549; > 100 µM (inactive) with ACHN; > 100 µM (inactive) with COLO 205; > 100 µM (inactive) in the assay with EKVX; 72.4 µM (inactive) in the assay with HCT-116; > 100 µM (inactive) with HOP-92. The GI50 was > 100 µM (inactive) in the assay on Hs-578T; > 100 µM (inactive) with KM12; > 100 µM (inactive) with MCF7; 70.6 µM (inactive) in the assay with MDA-N; 46.8 µM (inactive) in the assay on MOLT-4; > 100 µM (inactive) in the assay on NCI-H522. Also, the GI50 is > 100 µM (inactive) with OVCAR-5; > 100 µM (inactive) in the assay with PC-3; > 100 µM (inactive) in the assay with SNB-19; > 100 µM (inactive) in the assay with T47D; > 100 µM (inactive) in the assay on U-251; 48.9 µM (inactive) in the assay on UACC-257. The GI50 in the assay on UO-31 is > 100 µM (inactive).

Regarding `COc1ccc(S(=O)(=O)Nc2ccc(-c3csc(N4C(=O)/C(=C/c5cccs5)N=C4c4ccccc4)n3)cc2)cc1Cl`, the GI50 was 38.9 µM (inactive) with A549; 35.4 µM (inactive) in the assay on ACHN; 40.6 µM (inactive) in the assay on COLO 205; 30.9 µM (inactive) in the assay on HCT-116; 22.5 µM (inactive) in the assay with HOP-92; 35.2 µM (inactive) with Hs-578T. For the same compound, the GI50 with KM12 is 49.1 µM (inactive); with MCF7, 46.9 µM (inactive); with MDA-N, 34.1 µM (inactive); in the assay with MOLT-4 it was 32.8 µM (inactive); in the assay on NCI-H522, 22.3 µM (inactive); with OVCAR-5, > 100 µM (inactive). In addition, the GI50 in the assay on PC-3 was 34.8 µM (inactive); in the assay with SNB-19, 49.7 µM (inactive); with T47D, 19.9 µM (inactive); with U-251, 34.9 µM (inactive); in the assay with UACC-257 it was 46.3 µM (inactive); in the assay on UO-31, 28.1 µM (inactive).

With `Cc1ccc(NCc2nnc3c(-c4ccccc4)nc4ccccc4n23)cc1`, the GI50 with A549 was 23.2 µM (inactive); with ACHN, 23.9 µM (inactive); in the assay on COLO 205 it was 32.8 µM (inactive); in the assay on EKVX, 18.7 µM (inactive); in the assay on HCT-116, 21.5 µM (inactive); with HOP-92, 16 µM (inactive). In addition, the GI50 in the assay on Hs-578T was 50.7 µM (inactive); with KM12 it was 22.8 µM (inactive); with MCF7, 23.6 µM (inactive); with MDA-N it was 26.2 µM (inactive); in the assay on MOLT-4, 16 µM (inactive); in the assay on NCI-H522, 16 µM (inactive). For the same compound, the GI50 with OVCAR-5 is 39.9 µM (inactive); with PC-3 it was 19.1 µM (inactive); in the assay on SNB-19, 38 µM (inactive); with T47D it was 3.36 µM (inactive); with U-251 it was 16.7 µM (inactive); in the assay with UACC-257 it was 36 µM (inactive).

Consider `Brc1cccc(Nc2ncnc3sc4c(c23)CCC2(C4)OCCO2)c1`, for which the GI50 in the assay on A549 is 80 µM (inactive); in the assay with ACHN it was 4.68 µM (inactive); with COLO 205, 18 µM (inactive); with EKVX, 19.3 µM (inactive); with HCT-116, 27.2 µM (inactive); in the assay with HOP-92, 10.7 µM (inactive). Also, the GI50 with Hs-578T was 28.4 µM (inactive); with KM12, 24 µM (inactive); with MCF7, 28.3 µM (inactive); in the assay on MDA-N it was 33.6 µM (inactive); with NCI-H522 it was 12.3 µM (inactive); with OVCAR-5 it was > 100 µM (inactive). Further, the GI50 with PC-3 was 33.7 µM (inactive); with SNB-19 it was 34.3 µM (inactive); in the assay with T47D, 5.61 µM (inactive); in the assay with U-251 it was 35.6 µM (inactive); with UACC-257, 26.7 µM (inactive); with UO-31, 2.07 µM (inactive).

Consider `CC[C@]12C=CCN3CC[C@@]4(c5cc(Br)c(OC)cc5N(C)[C@H]4[C@@](O)(C(=O)NN)[C@@H]1O)[C@@H]32`, for which the GI50 was > 100 µM (inactive) in the assay on A549; 79.3 µM (inactive) in the assay with ACHN; > 100 µM (inactive) with COLO 205; 59.4 µM (inactive) in the assay with EKVX; > 100 µM (inactive) in the assay on HCT-116; > 100 µM (inactive) in the assay with HOP-92. Moreover, the GI50 with Hs-578T is 76.4 µM (inactive); in the assay with KM12, > 100 µM (inactive); in the assay on MCF7, 30.3 µM (inactive); with MDA-N, 48.1 µM (inactive); in the assay on MOLT-4 it was 26.7 µM (inactive); with NCI-H522, 52.2 µM (inactive). The GI50 in the assay on OVCAR-5 is > 100 µM (inactive); with PC-3, 28.1 µM (inactive); in the assay with SNB-19 it was 91.6 µM (inactive); with T47D, 40.4 µM (inactive); in the assay on U-251 it was 52 µM (inactive); with UACC-257, 55 µM (inactive). Also, the GI50 with UO-31 was > 100 µM (inactive).

For the compound `COc1c(O)cc(/C=C/c2cc(O)cc3c2[C@@]2(C(=O)O3)c3c(O)cc(O)cc3OC2c2cccc(O)c2)cc1O` (stereo partly drawn), the GI50 was > 100 µM (inactive) with A549; 27.4 µM (inactive) with ACHN; 41.2 µM (inactive) in the assay on COLO 205; 51.6 µM (inactive) in the assay with HCT-116; > 100 µM (inactive) in the assay on HOP-92; 72.8 µM (inactive) with Hs-578T. In addition, the GI50 in the assay with KM12 was 39.1 µM (inactive); in the assay on MCF7, 48.6 µM (inactive); with MDA-N it was 39.5 µM (inactive); in the assay with MOLT-4, 1.3 µM (inactive); in the assay with NCI-H522, 34.8 µM (inactive); in the assay on PC-3, 51.8 µM (inactive). Further, the GI50 with RPMI-8226 is 14.7 µM (inactive); in the assay with SNB-19, 39.3 µM (inactive); in the assay with T47D, 65.9 µM (inactive); in the assay with U-251, 41.4 µM (inactive); in the assay on UACC-257, > 100 µM (inactive); in the assay with UO-31, 26.1 µM (inactive).

Source of the values: ChEMBL document CHEMBL1201862, “PubChem BioAssay data set” (2004).
